The record followed here is patent US20250213649A1, “PEPTIDE HAVING ANTI-INFLAMMATORY AND ANTI-FIBROTIC ACTIVITIES AND USE THEREOF” (CAREGEN CO., LTD., priority 2022, published 2025).

Experiment [1] has as its system BALB/c mice. Briefly: LPS-induced acute lung inflammation model, ELISA of pro-inflammatory proteins in BALF. Type of experiment: in vivo. Particulars: BALB/c female mice, LPS 10 μg intranasal, peptide 0.5 mg, 1 mg intranasal, 24 hours (FIG. 11a-11d). Here is the method:
BALB/c mice (Female/7W) were used in animal experiments, and an acute lung inflammation model was established by injection of LPS. As shown in [Table 5] below, 7-week-old BALB/c female mice were divided into 5 groups of 5 mice each, and then the experiment was carried out. On the 1st day, LPS (10 μg/50 μl/mouse) was administered intranasally to the G2 to G5 groups. 1 hour after LPS administration, the G3 and G4 groups were subjected to intranasal administration with the peptide of Production Example 1 (0.5 mg, 1 mg), and the G5 positive control group was subjected to intraperitoneal administration with Dexamethasone (100 μg). 24 hours after the administration of the active substance and the drug, the mice were sacrificed to obtain the bronchoalveolar lavage fluid and the lung tissue, which were used in the next analysis.
The collected BALF was subjected to the ELISA analysis of pro-inflammatory proteins. The supernatant obtained by centrifuging the collected BALF at 3,000 rpm for 10 minutes was subjected to analysis using a TNF-α Quantikine ELISA kit (R&D systems), an IL-1β Quantikine ELISA kit (R&D systems), an IL-6 Quantikine ELISA kit (R&D systems), and a Myeloperoxidase (MPO) Quantikine ELISA Kit (R&D systems) according to the instructions for use, and then the absorbance was measured at 450 nm using a microplate reader.

Another experiment relates to MRC-5 cells. Briefly: Western blotting of LPS-induced inflammatory cytokine/signaling proteins, MRC-5 cells. Type of experiment: cell-based. Conditions: 5 μg/ml LPS, peptide 10, 50, 100, 500 μM, 24 hours, Western blot (FIG. 3). How it is done:
MRC-5 cells (lung fibroblast cells) were seeded at 2×10^5 cells/well in a 6-well plate and used in the experiment. After culturing for 1 day with a culture medium containing 10% FBS, the culture medium was replaced with a culture medium without containing FBS to induce starvation for 4 hours. Cells of a normal group without being treated with any substances, a group treated with 5 μg/ml of LPS (Sigma Aldrich) (negative control group), groups treated with 5 μg/ml of LPS and the peptide of Production Example 1 (10, 50, 100, 500 μM), and a group treated with 5 μg/ml of LPS and 10 μM of Dexamethasone (DEX) (positive control group) were treated with active substances and drugs respectively and then cultured for 24 hours. The cultured cells of each treatment group and control group were lysed by adding a lysis buffer, and then centrifugation was carried out at 4° C. at 12,000 rpm for 30 minutes to obtain proteins, which were subsequently quantified using a BCA Protein Assay kit (Sigma). The proteins were subjected to SDS-PAGE (sodium dodecyl sulfate-polyacrylamide gel electrophoresis) and then subjected to electrotransfer to a membrane. The membrane to which the proteins were attached was treated with 5% skim milk for blocking and then subjected to a reaction with a primary antibody overnight at 4° C. After washing with PBS-T, the membrane was subjected to a reaction with a secondary antibody at room temperature for 1 hour, washed again with PBS-T, and then visualized by a Western detection reagent (Elpis Biotech, Daejeon, Korea) using Gel Doc (Bio-Rad, Hercules, CA, USA). The antibodies used in the experiment are as follows. An Anti-IL-1β antibody (Cell signaling technology (CST), USA), an anti-IL-6 antibody (Santa Cruz Biotechnology, USA), an anti-pJNK antibody (Santa Cruz Biotechnology, USA), an anti-pERK antibody (Cell signaling technology (CST), USA), and an anti-β-Actin antibody (Santa Cruz Biotechnology, USA).

The test system of experiment [2] is BALB/c mice. Briefly: BLM-induced pulmonary fibrosis model, Masson's Trichrome staining of lung tissue collagen. Particulars: BALB/c male mice, peptide 1 mg/mouse intranasal three times a week for 14 days, 21st day, Trichrome staining (FIG. 15a, 15b). The class given is in vivo. Here is the method:
(§1) As shown in [Table 6] below, 8-week-old BALB/c male mice were divided into 4 groups of 5 mice each. On the 1st day, a Bleomycin solution ([…]/50 μl/mouse) was administered through the oropharynx to carry out one time of induction with BLM. Then, from the 7th day, the peptide of Production Example 1 (1 mg/mouse) was administered intranasally three times a week for 14 days, and Pirfeninone (2 mg/mouse) for a positive control group was administered orally three times a week for 14 days. On the 21st day of the induction with BLM, mice were sacrificed to obtain the bronchoalveolar lavage fluid and the lung tissue, which were used in the next analysis.
The lung tissue obtained from mice subjected to the animal experiment was washed with PBS at room temperature and then fixed with 4% paraformaldehyde (PBS dilution). The fixed tissue was washed three times with PBS and dehydrated using an ethanol series having a concentration gradient of 70% to 100%. Next, the lung tissue sample was embedded and cut into slices having a thickness of 4 μm. The sliced specimen having a size of 4 μm, which was placed on a slide glass, was dewaxed and hydrated in an ethanol series having a concentration gradient. Staining was carried out for 10 minutes in each of Weigert's iron hematoxlin, a Biebrich scarlet-acid fuchsin solution, a Phosphomolybdic-phosphotungstic acid solution, and an aniline blue solution. […]

The test system of experiment [3] is BALB/c mice. Briefly: BLM-induced pulmonary fibrosis model, cell counts in bronchoalveolar lavage fluid. The class given is in vivo. Conditions: BALB/c male mice, peptide 1 mg/mouse intranasal three times a week for 14 days, 21st day (FIG. 13b). Here is the method:
as §1
The mouse subjected to the animal experiment was anesthetized, and then the treatment area was disinfected with 70% ethanol. […] The separated cells were resuspended in 0.5 ml of PBS, subsequently diluted with trypan blue solution at a 1:1 ratio, and then the total number of cells was counted using a hematocytometer. […] After staining, cells were observed and counted through a microscope, and then the number of immune cells with respect to the total number of cells was calculated to show the results as a graph. […]

With “KYLLVHRPYYRR [peptide of Production Example 1]”, in the experiment on BALB/c mice [1], the “expression level of IL-1β in BALF (ELISA)” value is listed as “reduced the increased expression levels of the cytokines in a concentration-dependent manner”, the “expression level of IL-6 in BALF (ELISA)” value was “reduced the increased expression levels of the cytokines in a concentration-dependent manner”, the “expression level of Myeloperoxidase (MPO) in BALF (ELISA)” value is reported as “reduced the increased expression levels of the cytokines in a concentration-dependent manner” and the “expression level of TNF-α in BALF (ELISA)” value is “reduced the increased expression levels of the cytokines in a concentration-dependent manner”. Moreover, in the experiment on MRC-5 cells, the “expression of IL-1β (protein)” value was “decreased again the expression of IL-1β, IL-6, pJNK, and pERK in a concentration-dependent manner”; the “expression of IL-6 (protein)” value was “decreased again the expression of IL-1β, IL-6, pJNK, and pERK in a concentration-dependent manner”; the “expression of pERK” value was “decreased again the expression of IL-1β, IL-6, pJNK, and pERK in a concentration-dependent manner”; the “expression of pJNK” value is “decreased again the expression of IL-1β, IL-6, pJNK, and pERK in a concentration-dependent manner”. In addition, in the experiment with BALB/c mice [2], the “degree of collagen deposition in the lung tissue” value is “significantly reduced”. In the experiment on BALB/c mice [3], the “number of lymphocytes in bronchoalveolar lavage fluid” value was “decreased the increased number of macrophages and the increased number of lymphocytes”; the “number of macrophages in bronchoalveolar lavage fluid” value was “decreased the increased number of macrophages”.
